This note sets out measurements from ChEMBL document CHEMBL3272309, “Potential central nervous system antitumor agents. Aziridinylbenzoquinones. 1” (J Med Chem, 1976).

Active and inactive are the calls of the source. The calls are words filed in the database; no cut-off is given here.

The test system of one test is L1210. The test is described as follows: Antitumor activity against mouse L1210 cells allografted in ip dosed mouse administered qd on day 1, 5 and 9 relative to control. It is filed as functional.
Regarding `CCSC1=C(N2CC2)C(=O)C(SCC)=C(N2CC2)C1=O`, the T/C (commonly the ratio of treated to control) turned out to be 130%.

Regarding `CC1(C)CN1C1=C(Br)C(=O)C(N2CC2(C)C)=C(Br)C1=O`, the outcome was inactive.

Take `CC1(C)CN1C1=C(Cl)C(=O)C(N2CC2(C)C)=C(Cl)C1=O`: the result was inactive.

On to `CC1CN1C1=C(Br)C(=O)C(N2CC2C)=C(Br)C1=O` (stereo not given), for which the result was inactive.

In the case of `CC1CN1C1=C(Cl)C(=O)C(N2CC2C)=C(Cl)C1=O` (stereo not given), the outcome was inactive.

Turning to `O=C1C(Br)=C(N2CC2)C(=O)C(Br)=C1N1CC1`, the result was inactive.

Take `O=C1C(Cl)=C(N2CC2)C(=O)C(Cl)=C1N1CC1`: the result was inactive.

The next test deals with L1210. The test is described as follows: Antitumor activity against mouse L1210 cells allografted in ip dosed mouse. It counts as functional, organism-based.
In the case of `CC(=O)NC1=C(Cl)C(=O)C(NC(C)=O)=C(Cl)C1=O`, the result was inactive.

On to `CC(=O)NC1=C(N2CC2(C)C)C(=O)C(NC(C)=O)=C(N2CC2(C)C)C1=O`, for which the outcome was inactive.

As to `CCCSC1=C(N2CC2)C(=O)C(SCCC)=C(N2CC2)C1=O`, the outcome was inactive.

Take `CCOC(=N)C1=C(Cl)C(=O)C(C(=N)OCC)=C(Cl)C1=O`: the result was inactive.

Turning to `COC1=C(Br)C(=O)C(OC)=C(Br)C1=O`, the result was inactive.

On to `NC1=C(Cl)C(=O)C(N)=C(Cl)C1=O`, for which the result was inactive.

Regarding `O=C1C(Cl)=C(Cl)C(=O)C(Cl)=C1Cl`, the outcome was inactive.

For `O=C1C(Cl)=C(N2CC2)C(=O)C(Cl)=C1N1CC1`, the result was inactive.
